We go through six molecules from patent US20150141435A1, “2-PYRIDONE ANTIMICROBIAL COMPOSITIONS” (Emergent BioSolutions, priority 2010, published 2015).

≈ marks a conversion by molar mass, not a printed value. Counter-ions that a name gives are not always drawn. Like-named read-outs stand apart in the source and are kept apart here.

This experiment deals with bacterial pathogens resistant against quinolones antibiotics. The experiment in a line: MIC against quinolone-resistant bacterial pathogens (Table 5). The class given is cell-based.
[1] abbreviates: Enterococcus faecalis, read-out: MICs, Enterococcus faecalis vancomycin-resistant (VanB) clinical isolate, GP14.
Where [2] appears, read: Enterococcus faecium, read-out: MICs, Enterococcus faecium vancomycin-resistant (VanA) clinical isolate, GP17.
Setting [3] is: Providencia stuartii, GN24, read-out: MICs, Providencia stuartii multi-drug resistant clinical isolate, GN24.
[4] abbreviates: Pseudomonas aeruginosa, GN64, read-out: MICs, Pseudomonas aeruginosa levofloxacin-resistant clinical isolate, GN64.
Where [5] appears, read: Staphylococcus aureus, MRSA, read-out: MICs, EMRSA16 Staphylococcus aureus (MRSA) SSCmec type 2, GP33.
[6] abbreviates: Staphylococcus aureus, read-out: MICs, Staphylococcus aureus levofloxacin-resistant clinical isolate, amino acid changes GrlA, GrlB & GyrA, GP82.
The mark [7] stands for this setting: Staphylococcus aureus, read-out: MICs, Staphylococcus aureus multi-drug-resistant clinical isolate, GP5.
Setting [8] is: Streptococcus pneumoniae, read-out: MICs, Streptococcus pneumoniae multi-drug resistant clinical isolate, GP24.
[9] abbreviates: read-out: MICs, Acinetobacter haumannii levofloxacin-resistant clinical isolate, GN54.
[10] abbreviates: Escherichia coli, GN03, read-out: MICs, Escherichia coli multi-drug resistant clinical isolate, GN03.

Consider `Cc1c(-c2ccc(N)c(F)c2)ccn2c(=O)c(C(=O)O)cc(C3CC3)c12` [Example 2 K salt, 8-(4-amino-3-fluoro-phenyl)-1-cyclopropyl-9-methyl-4-oxo-4H-quinolizine-3-carboxylic acid], for which the MIC under setting [1] is 0.5 mg/L; the MIC under setting [2] turned out to be 2 mg/L; the MIC under setting [3] turned out to be 1 mg/L; the MIC under setting [4] was determined as 2 mg/L; the MIC under setting [5] is 0.12 mg/L; the MIC under setting [6] was 0.06 mg/L. Also, the MIC under setting [7] came out at 0.06 mg/L, the MIC under setting [8] turned out to be 0.12 mg/L and the MIC under setting [9] was 2 mg/L.

`Cc1c(-c2ccc3[nH]ncc3c2)ccn2c(=O)c(C(=O)O)cc(C3CC3)c12` [Example 23 K salt, 1-cyclopropyl-8-(1H-indazol-5-yl)-9-methyl-4-oxo-4H-quinolizine-3-carboxylic acid]: the MIC by setting is: under setting [1], 0.25 mg/L; under setting [2], 0.5 mg/L; under setting [10], 4 mg/L; under setting [3], 1 mg/L; under setting [4], 2 mg/L; under setting [5], 0.03 mg/L. Moreover, the MIC under setting [7] stood at 0.03 mg/L, the MIC under setting [8] turned out to be 0.03 mg/L and the MIC under setting [9] was found to be 1 mg/L.

As to `Cc1c(-c2cc(F)c(N)cc2F)ccn2c(=O)c(C(=O)O)cc(C3CC3)c12` [Example 28 K salt, 8-(4-amino-2,5-difluoro-phenyl)-1-cyclopropyl-9-methyl-4-oxo-4H-quinolizine-3-carboxylic acid], the MIC was 0.25 mg/L under setting [1]; 1 mg/L under setting [2]; 16 mg/L under setting [10]; 1 mg/L under setting [3]; 4 mg/L under setting [4]; 0.06 mg/L under setting [5]. Moreover, the MIC by setting is: under setting [6], 0.03 mg/L; under setting [7], 0.06 mg/L; under setting [8], 0.06 mg/L; under setting [9], 2 mg/L.

In the case of `Cc1c(-c2ccc(O)cc2)ccn2c(=O)c(C(=O)O)cc(C3CC3)c12` [Example 46 K salt, 1-cyclopropyl-8-(4-hydroxy-phenyl)-9-methyl-4-oxo-4H-quinolizine-3-carboxylic acid], the MIC is, setting by setting: under setting [1], 0.5 mg/L; under setting [2], 1 mg/L; under setting [10], 8 mg/L; under setting [3], 2 mg/L; under setting [4], 4 mg/L; under setting [5], 0.06 mg/L. Moreover, the MIC under setting [6] was 0.03 mg/L, the MIC under setting [7] stood at 0.06 mg/L, the MIC under setting [8] stood at 0.12 mg/L and the MIC under setting [9] is 2 mg/L.

As to `Cc1c(-c2ccc(N)nc2)ccn2c(=O)c(C(=O)O)cc(C3CC3)c12` [Example 21 K salt, 8-(6-amino-pyridin-3-yl)-1-cyclopropyl-9-methyl-4-oxo-4H-quinolizine-3-carboxylic acid], the MIC was found to be 1 mg/L under setting [1]; 4 mg/L under setting [2]; 16 mg/L under setting [10]; 2 mg/L under setting [3]; 4 mg/L under setting [4]; 0.25 mg/L under setting [5]. Also, the MIC runs as follows: under setting [6], 0.12 mg/L; under setting [7], 0.25 mg/L; under setting [8], 0.12 mg/L; under setting [9], 4 mg/L.

Turning to `C[C@H]1COc2c(N3CCN(C)CC3)c(F)cc3c(=O)c(C(=O)O)cn1c23` [Levofloxacin], the MIC by setting is: (Acinetobacter haumannii levofloxacin-resistant clinical isolate, GN54, read-out: MICs) not below 16 mg/L; (EMRSA16 Staphylococcus aureus (MRSA) SSCmec type 2, GP33, read-out: MICs) not below 16 mg/L; (Enterococcus faecalis vancomycin-resistant (VanB) clinical isolate, GP14, read-out: MICs) not below 16 mg/L; (Enterococcus faecium vancomycin-resistant (VanA) clinical isolate, GP17, read-out: MICs) not below 16 mg/L; (Escherichia coli multi-drug resistant clinical isolate, GN03, read-out: MICs) not below 16 mg/L; (Providencia stuartii multi-drug resistant clinical isolate, GN24, read-out: MICs) not below 16 mg/L. Also, the MIC by setting is: (Pseudomonas aeruginosa levofloxacin-resistant clinical isolate, GN64, read-out: MICs) not below 16 mg/L; (Staphylococcus aureus multi-drug-resistant clinical isolate, GP5, read-out: MICs) not below 16 mg/L; under setting [6], 8 mg/L (≈ 22.1 µM); (Streptococcus pneumoniae multi-drug resistant clinical isolate, GP24, read-out: MICs) 2 mg/L (≈ 5.53 µM).
